From patent US11000501B2, “Composition for preventing or treating neurological and mental disorders, containing syringaresinol” (SEOUL NATIONAL UNIVERSITY R&DB FOUNDATION, priority 2016, dated 2021)

Legend:
[1] = system: NMDAR-EPSC in CA1 neurons; assay: NMDAR-mediated EPSC recording in CA1 neurons; assay type: cell-based, mouse; details: −40 mV; NBQX and picrotoxin present; 100-ms interval
Experimental: To measure evoked excitatory post-synaptic current (eEPSC), the synapse potential was recorded using a patch pipette (3 to 4Mohm) via the membrane voltage clamp technique. The patch pipette contained a solution containing 100 mM CsMeSO4, 10 mM TEA-Cl, 20 mM CsCl, 8 mM NaCl, 10 mM HEPES, 0.5 mM QX-314-Cl, 4 mM Mg-ATP, 0.3 mM Na-GTP and 10 mM EGTA and having pH 7.25 and 290 mOsm/kg. EPSC was measured at a frequency of 0.05 Hz. The synaptic current was induced using a glass pipette (0.3 to 0.5 Mohm). GABAA receptor (GABAAR) antagonist picrotoxin (50 μM) was added to ACSF.

CA1 neurons = assay: Whole-cell current clamp recording of membrane potential; assay type: cell-based, mouse
Source text: Next, whole-cell current clamp recordings were used to check the effect of SYR on the membrane potential of CA1 neurons.

Open field test = assay type: in vivo, mouse; details: 10 mg/kg intraperitoneally, test 30 minutes after injection, 30-minute test
Experimental: All experiments were performed using male and female C57BL/6 mice of 4 to 6 weeks of age. An open field test was performed on male mice of 6 to 7 weeks. Animals were maintained with circulating 12/12-h day/night, while daytime starts at 07:00. Three or five animals were housed per one cage. Free available food and water were fed to the mice under specific pathogenic-microorganism free (SPF) conditions. The animal maintenance protocol and all experimental procedures were approved by the Institutional Animal Care and Use Committee (IACUC) of Seoul National University.
In an open field test, we video-recorded a movement of a 7 to 10-week-old mouse in a white plastic chamber (40×40×40 cm) in a darkened room for 30 minutes. Then, the moving distance of the mouse was measured using Ethovision XT (Noldus) software.
To determine the change of the activity of the mice by syringaresinol, we injected syringaresinol at a concentration of 10 mg/kg intraperitoneally into the mice. After 30 minutes, we measured the activity of the mice via an open field test. In this connection, control was injected with DMSO, a solvent used for dissolving syringaresinol. The open field test was conducted for 30 minutes. The activity of the mouse was checked at a 5-minute interval. Further, during the 30-minute test, the total movement distance of the mouse was measured.

[2] = system: Schaffer collateral (SC)-CA1 synapse of the hippocampus; assay: fEPSP recording in hippocampal SC-CA1 synapse (hippocampal slices); assay type: cell-based, mouse; details: for first and second fEPSPs: paired pulse interval 100 ms
Experimental: A hippocampus slice (400 μm thick) was prepared in a cold dissection buffer using a vibrating machine (Vibratome, Leica, Germany) and then a CA3 region of each slice was removed surgically immediately after the slice formation. In this connection, the cold dissection buffer contained sucrose 230 mM; NaHCO3 25 mM; KCl 2.5 mM; NaH2PO4 1.25 mM; D-glucose 10 mM; Na-ascorbic acid salt 1.3 mM; MgCl2 3 mM; CaCl2 0.5 mM, 95% O2/5% CO2 and had pH 7.4. The slice was recovered in a normal ACSF (artificial cerebrospinal fluid) for 1 hour and then maintained at room temperature (23 to 25° C.) until recording. […] All electrophysiological experiments were performed in a recording chamber while the samples were immersed in the solution in a manner described previously (Song et al., 2017). Signals were amplified using a MultiClamp 700B amplifier (Molecular Devices, CA, USA) at a cut-off frequency of 2.8 kHz and were measured with a Digidata 1440A interface (Molecular Devices) at a 10 kHz sampling frequency. Data were collected using pClamp 10.2 (Molecular Devices) software. The collected data were analyzed with a program created in the lab using Igor Pro (WaveMetrics, OR, USA). To record the field excitatory post-synaptic potential (fEPSP) in the hippocampal SC-CA1 synapse, hippocampal slices were placed in the recording chamber and perfused with ACSF while oxygen was fed continuously to the ACSF. The ACSF was maintained at a temperature of 29 to 30° C. using a heater for perfusion (SH-27B, Warner Instruments, CT, USA). A synapse response was induced by stimulation with a glass pipette (0.3 to 0.5 Mohm) every 20 seconds (0.05 Hz). The synapse response was recorded using a glass pipette (3 to 4 Mohm) filled with ACSF. The intensity of the stimulus was adjusted to produce a synapse response of about ⅓ of the maximum value thereof. The slices with unstable (10%) baseline records were excluded. To investigate the effect of syringaresinol (SYR) on the synaptic transmission, the field excitatory post-synaptic potential (fEPSP) of the Schaffer collateral (SC)-CA1 synapse of the hippocampus of adult mice (4 to 6 weeks of age) was measured. After confirming the stable baseline, different concentrations of SYR were applied thereto using the perfusion solution.

[3] = system: SC-CA1 synapse synaptic vesicle pool; assay: Readily releasable pool (RRP) size by cumulative amplitude analysis, 20 Hz train; assay type: cell-based, mouse; details: 100 μM; 80 stimuli at 20 Hz
Experimental: Previous studies have shown that the secretion probability is regulated by the size of the readily releasable pool (RRP) of hippocampal neurons. Therefore, RRP was measured before and after treatment with SYR (100 μM). A high-frequency train (20 Hz) composed of more than 60 stimuli was prepared. 80 stimuli at 20 Hz was applied to completely remove RRP from the SC-CA1 synapse. RRP size was measured by cumulative amplitude analysis (Stevens and Williams, 2007; Wesseling and Lo, 2002). In the presence of AP-5 and picrotoxin, SYR inhibited AMPAR-EPSC (FIG. 5A and FIG. 5B). […] An extent by which RRP size is reduced was very close to an extent by which synapse is inhibited (FIG. 5B and FIG. 5F). […] This means that a decrease in RRP size may lead to the SYR-induced synapse decrease.

COc1cc(C2OCC3C(c4cc(OC)c(O)c(OC)c4)OCC23)cc(OC)c1O (stereo not shown) [SYR, syringaresinol]
NMDAR-EPSC induced by paired-pulse stimulation [1]: significantly inhibited
membrane potential of CA1 neurons (CA1 neurons; SYR 100 μM applied extracellularly): Significant hyperpolarization
resting membrane potential (CA1 neurons; SYR 100 μM in the pipette solution): did not affect resting membrane potential
activity of the mouse as fraction of control (movement distance) (Open field test): ¼
paired-pulse ratio (PPR) of fEPSP ([2]; 30 μM and 100 μM, interval 100 ms): gradually increased
first and second fEPSPs ([2]; 30 μM): significantly decreased
amplitude of fEPSP during SYR perfusion (1 h) ([2]; 100 μM, 1 h): rapidly decreased and then remained stable
PPR before vs one hour after application, small inter-pulse interval ([2]; 100 μM, interval 200 ms): significant difference in PPR
PPR before vs one hour after application, large inter-pulse interval ([2]; 100 μM, interval 500 ms): no difference in PPR
first and second fEPSPs ([2]; 100 μM): significantly decreased
inhibition at 500 µM ([2]; Mus musculus, 500 μM of SYR, read-out: maximum inhibition of fEPSP): 75.9 ± 1.6%
IC50 ([2]; Mus musculus, SC-CA1 synapse, hippocampal slice, bath perfusion, read-out: IC50 for decrease of slope and amplitude of fEPSP): 90 µM
post-synaptic response (fEPSP) ([2]; high concentrations, >10 μM): decreased rapidly
effect on fEPSP ([2]; low concentrations, 1 to 5 μM): did not affect fEPSP
PPR and fEPSP after washing the SYR with control solution ([2]; washout): slowly recovered to baseline
RRP size [3]: significant decrease
